Experiments:
[1] = tested on: 22AG (DNA, G4) AGGGTTAGGGTTAGGGTTAGGG; assay: UV/visible titration; settings: 100 mM KCl, 25 mM MOPS, 1 mM EDTA, pH 7.1, 20 °C (text: 25 °C), apparent, per site, MIS model
[2] = tested on: duplex-[(dGdC)12·(dGdC)12] (DNA, duplex) GCGCGCGCGCGCGCGCGCGCGCGC; assay: fluorescence titration; settings: 100 mM KCl, 25 mM MOPS, 1 mM EDTA, pH 7.1, 20 °C (text: 25 °C), apparent, per site, MIS model
[3] = tested on: c-myc (DNA, G4) TGAGGGTGGGTAGGGTGGGTAA; assay: ITC; settings: 100 mM KCl; 25 mM MOPS, 1 mM EDTA, pH 7.1, 25 °C; site 1 of 2; nB restricted to 2
[4] = tested on: c-myc (DNA, G4) TGAGGGTGGGTAGGGTGGGTAA; assay: fluorescence titration; settings: 100 mM KCl, 25 mM MOPS, 1 mM EDTA, pH 7.1, 20 °C (text: 25 °C), apparent, per site, MIS model
[5] = tested on: duplex-[(dGdC)12·(dGdC)12] (DNA, duplex) GCGCGCGCGCGCGCGCGCGCGCGC; assay: ITC; settings: 100 mM KCl; 25 mM MOPS, 1 mM EDTA, pH 7.1, 25 °C; site 1 of 2; ill-defined, SI favours higher value
[6] = tested on: 22AG (DNA, G4) AGGGTTAGGGTTAGGGTTAGGG; assay: fluorescence titration; settings: 100 mM KCl, 25 mM MOPS, 1 mM EDTA, pH 7.1, 20 °C (text: 25 °C), apparent, per site, MIS model
[7] = tested on: duplex-[(dAdT)12·(dAdT)12] (DNA, duplex) ATATATATATATATATATATATAT; assay: ITC; settings: 100 mM KCl; 25 mM MOPS, 1 mM EDTA, pH 7.1, 25 °C; too weak to be analysed
[8] = tested on: 22AG (DNA, G4) AGGGTTAGGGTTAGGGTTAGGG; assay: ITC; settings: 100 mM KCl; 25 mM MOPS, 1 mM EDTA, pH 7.1, 25 °C; site 1 of 2
[9] = tested on: duplex-[(dAdT)12·(dAdT)12] (DNA, duplex) ATATATATATATATATATATATAT; assay: fluorescence titration; settings: 100 mM KCl; 25 mM MOPS, 1 mM EDTA, pH 7.1, 20 °C (text: 25 °C); 2 µM ligand; affinity printed as negligible
[10] = tested on: duplex-[(dGdC)12·(dGdC)12] (DNA, duplex) GCGCGCGCGCGCGCGCGCGCGCGC; assay: UV/visible titration; settings: 100 mM KCl, 25 mM MOPS, 1 mM EDTA, pH 7.1, 20 °C (text: 25 °C), apparent, per site, MIS model
[11] = tested on: duplex-[(dAdT)12·(dAdT)12] (DNA, duplex) ATATATATATATATATATATATAT; assay: UV/visible titration; settings: 100 mM KCl; 25 mM MOPS, 1 mM EDTA, pH 7.1, 20 °C (text: 25 °C); 2 µM ligand; affinity printed as negligible
[12] = tested on: c-myc (DNA, G4) TGAGGGTGGGTAGGGTGGGTAA; assay: UV/visible titration; settings: 100 mM KCl, 25 mM MOPS, 1 mM EDTA, pH 7.1, 20 °C (text: 25 °C), apparent, per site, MIS model

K b [1]: (8.4±2.2) × 10^6 M^-1
K b [2]: (2.6±0.7) × 10^6 M^-1
K A [3]: 1.3×10^7 (>0.4×10^7) M^-1
K b [4]: (23.1±5.9) × 10^6 M^-1
K A [5]: 1.2×10^5 (<8×10^6) M^-1
K b [6]: (1.2±0.2) × 10^6 M^-1
binding [7]: weak
K A [8]: 3.8×10^6 (<36×10^6) M^-1
binding [9]: weak
K b [10]: (2.6±0.9) × 10^6 M^-1
binding [11]: weak
K b [12]: (23.8±7.3) × 10^6 M^-1
SMILES: C[n+]1cccc(-c2cc3c4cc(-c5ccc[n+](C)c5)c5nc(C(F)(F)C(F)(F)C(F)(F)F)nc6c(-c7ccc[n+](C)c7)cc(c7cc(-c8ccc[n+](C)c8)c8nc(C(F)(F)C(F)(F)C(F)(F)F)nc2c8c37)c4c56)c1

Reference: PMC5071672 (2016)
